The source of these data is PMC5253734, “A chemical genetic screen uncovers a small molecule enhancer of the N-acylethanolamine degrading enzyme, fatty acid amide hydrolase, in Arabidopsis” (Scientific Reports, 2017).

For orientation: Km means the concentration of substrate that gives half-maximal velocity.

The target in test [1] is T1, AtFAAH (Arabidopsis fatty acid amide hydrolase) (Arabidopsis thaliana, UniProt Q7XJJ7).
T1 construct: gene FAAH
T1 sequence (Q7XJJ7 1-607): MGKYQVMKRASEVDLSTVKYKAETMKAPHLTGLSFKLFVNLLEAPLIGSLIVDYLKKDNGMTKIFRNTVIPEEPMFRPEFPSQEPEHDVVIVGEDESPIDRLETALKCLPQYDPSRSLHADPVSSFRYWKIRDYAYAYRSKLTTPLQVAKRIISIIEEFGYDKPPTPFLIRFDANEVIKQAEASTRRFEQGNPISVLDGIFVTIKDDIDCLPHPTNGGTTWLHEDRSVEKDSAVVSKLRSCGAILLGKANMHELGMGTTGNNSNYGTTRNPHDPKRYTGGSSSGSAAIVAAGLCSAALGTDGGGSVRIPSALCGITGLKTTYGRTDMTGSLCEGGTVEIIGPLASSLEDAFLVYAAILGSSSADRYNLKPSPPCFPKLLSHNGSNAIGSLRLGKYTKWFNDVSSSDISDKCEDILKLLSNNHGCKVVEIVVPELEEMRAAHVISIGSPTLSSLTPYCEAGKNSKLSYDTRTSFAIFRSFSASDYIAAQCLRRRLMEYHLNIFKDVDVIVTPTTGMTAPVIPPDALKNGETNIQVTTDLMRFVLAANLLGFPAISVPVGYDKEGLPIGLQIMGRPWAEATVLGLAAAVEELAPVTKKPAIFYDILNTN
Briefly: radiometric TLC amidohydrolase assay. The test is classed as biochemical. The following applies: activator (raises apparent Vmax, not Km); 100 μM [14C]-NAE 12:0; pH 9, 0.2 mM DDM, 30 °C.

Test [2] addresses T1, AtFAAH (Arabidopsis fatty acid amide hydrolase). Briefly: radiometric TLC amidohydrolase assay, initial velocities, Michaelis-Menten. Type of test: biochemical. The settings on record: labelled compound ([1-14C]); pH 9 Bis-Tris propane, 0.2 mM DDM, 30 °C; range covers without and with 100 μM MDPD; read-out: apparent Km.

With `COc1ccccc1-n1cc2c(c1-c1ccccc1)c(=O)n(C)c(=O)n2C` [MDPD, 6-(2-methoxyphenyl)-1,3-dimethyl-5-phenyl-1H-pyrrolo[3,4-d]pyrimidine-2,4(3 H,6 H)-dione], the “fold increase in activity at 100 μM” value in test [1] was ~ 4 fold.
On to `CCCCCCCCCCCC(=O)NCCO` [NAE 12:0, N-lauroylethanolamine], for which the Michaelis constant (Km) in test [2] is 27 to 28 µM.
